The results in this text go back to patent publication US20160031839A1, “ARGININE […] INHIBITORS AND USES THEREOF” (EPIZYME, INC., priority 2013, published 2016).

Structures are written as SMILES. Like-named read-outs stand apart in the source and are kept apart here.

One test deals with T1, PRMT6 (Homo sapiens, UniProt Q96LA8).
T1 construct: Expressed full-length human Flag- and His-tagged PRMT6 protein was purified from cell paste; made in house; host or cells: HEK 293F cells (BacMam baculovirus)
T1 sequence (Q96LA8 with tags, fused parts or gaps): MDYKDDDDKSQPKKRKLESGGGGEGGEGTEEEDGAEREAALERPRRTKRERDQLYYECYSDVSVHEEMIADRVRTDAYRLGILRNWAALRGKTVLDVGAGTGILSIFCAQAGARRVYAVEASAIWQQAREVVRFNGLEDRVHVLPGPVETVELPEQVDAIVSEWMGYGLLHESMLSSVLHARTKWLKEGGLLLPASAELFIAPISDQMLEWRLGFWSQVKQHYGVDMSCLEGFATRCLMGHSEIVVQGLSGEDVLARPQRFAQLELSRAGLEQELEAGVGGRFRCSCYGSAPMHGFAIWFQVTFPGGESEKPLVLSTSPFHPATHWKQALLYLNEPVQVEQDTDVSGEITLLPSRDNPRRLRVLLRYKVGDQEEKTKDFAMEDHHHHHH
Nature of the test: PRMT6 Biochemical Assay. The source says:
Peptide representative of human histone H4 residues 36-50 was synthesized with an N-terminal linker-affinity tag motif and a C-terminal amide cap by 21st Century Biochemicals. The peptide was purified by high-performance liquid chromatography (HPLC) to greater than 95% purity and confirmed by liquid chromatography mass spectrometry (LC-MS). The sequence was Biot-Ahx-[…]-amide and contained a monomethylated lysine at position 44 (SEQ ID NO.:5).
Full-length human PRMT6 (NM_018137.2) transcript clone was amplified from an HEK 293 cDNA library, incorporating a flanking 5′ sequence encoding a FLAG tag ([…]) (SEQ ID NO.:6) fused directly to Ser 2 of PRMT6 and a 3′ sequence encoding a hexa His sequence (HHHHHH) (SEQ ID NO.:17) fused directly to Asp 375. The amplified gene was subcloned into pFastBacMam (Viva Biotech).
Column was washed with 20 mM imidazole in the same buffer and Flag-PRMT6-His was eluted with 150 mM imidazole. Pooled fractions were dialysed against buffer Ni-A and further purified by anti-flag M2 affinity chromatography. Flag-PRMT6-His was eluted with 200 ug/ml FLAG peptide in the same buffer. Pooled fractions were dialysed in 20 mM Tris, 150 mM NaCl, 10% glycerol and 5 mM (3-mercaptoethanol, pH 7.8. The purity of recovered protein was 95%.
General Procedure for PRMT6 Enzyme Assays on Peptide Substrates.
The assays were all performed in a buffer consisting of 20 mM Bicine (pH=7.6), 1 mM TCEP, 0.005% BSG, and 0.002% Tween 20, prepared on the day of use. Compounds in 100% DMSO (1 ul) were spotted into a polypropylene 384-well V-bottom plates (Greiner) using a Platemate Plus outfitted with a 384-channel head (Thermo Scientific). DMSO (1 ul) was added to Columns 11, 12, 23, 24, rows A-H for the maximum signal control and 1 ul of SAH, a known product and inhibitor of PRMT6, was added to columns 11, 12, 23, 24, rows I-P for the minimum signal control. A cocktail (40 ul) containing the PRMT6 enzyme was added by Multidrop Combi (Thermo-Fisher). The compounds were allowed to incubate with PRMT6 for 30 min at room temperature, then a cocktail (10 ul) containing SAM and peptide was added to initiate the reaction (final volume=51 ul). The final concentrations of the components were as follows: PRMT6 was 1 nM, ^3H-SAM was 200 nM, non-radiolabeled SAM was 250 nM, peptide was 75 nM, SAH in the minimum signal control wells was 1 mM, and the DMSO concentration was 2%. The assays were stopped by the addition of non-radiolabeled SAM (10 ul) to a final concentration of 400 uM, which dilutes the ^3H-SAM to a level where its incorporation into the peptide substrate is no longer detectable. 50 ul of the reaction in the 384-well polypropylene plate was then transferred to a 384-well Flashplate and the biotinylated peptides were allowed to bind to the streptavidin surface for at least 1 hour before being washed once with 0.1% Tween20 in a Biotek ELx405 plate washer. The plates were then read in a PerkinElmer TopCount plate reader to measure the quantity of ^3H-labeled peptide bound to the Flashplate surface, measured as disintegrations per minute (dpm) or alternatively, referred to as counts per minute (cpm).
(§1) Where dpm=disintegrations per minute, cmpd=signal in assay well, and min and max are the respective minimum and maximum signal controls.
(§2) Where top and bottom are the normally allowed to float, but may be fixed at 100 or 0 respectively in a 3-parameter fit. The Hill Coefficient normally allowed to float but may also be fixed at 1 in a 3-parameter fit. Y is the % inhibition and X is the compound concentration.

For a further test, the target named is T2, PRMT8 (Homo sapiens, UniProt Q9NR22).
T2 construct: Full-length human PRMT8 (NM_019854.4) isoform 1 transcript clone; made in house; host or cells: E. coli BL21(DE3) Gold
T2 sequence (Q9NR22 whole entry, canonical isoform): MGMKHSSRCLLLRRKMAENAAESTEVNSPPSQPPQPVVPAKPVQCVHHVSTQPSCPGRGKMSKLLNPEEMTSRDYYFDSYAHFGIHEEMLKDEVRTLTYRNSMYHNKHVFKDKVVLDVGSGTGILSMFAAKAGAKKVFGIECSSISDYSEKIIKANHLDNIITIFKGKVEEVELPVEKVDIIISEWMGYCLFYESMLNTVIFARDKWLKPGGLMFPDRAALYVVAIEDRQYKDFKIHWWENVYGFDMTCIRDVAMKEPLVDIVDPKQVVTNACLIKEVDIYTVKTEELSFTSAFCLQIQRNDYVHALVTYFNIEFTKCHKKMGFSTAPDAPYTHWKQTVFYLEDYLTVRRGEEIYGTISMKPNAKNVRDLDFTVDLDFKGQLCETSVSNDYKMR
In words: PRMT8 Biochemical Assay.
Description: Peptide representative of human histone H4 residues 31-45 was synthesized with an N-terminal linker-affinity tag motif and a C-terminal amide cap by 21st Century Biochemicals. The peptide was purified by high-performance liquid chromatography (HPLC) to greater than 95% purity and confirmed by liquid chromatography mass spectrometry (LC-MS). The sequence was Biot-Ahx-[…]-amide (SEQ ID NO.:8).
The resulting construct encodes an N-terminal GST tag and a thrombin cleavage sequence
The column was washed with 50 mM phosphate buffer, 100 mM NaCl, 5% glycerol, 5 mM […], pH 7.8 and PRMT8 was eluted by 100 mM phosphate in the same buffer. Protein was concentrated and buffer was exchanged to 50 mM Tris, 300 mM NaCl, 10% glycerol, 5 mM 3-mercaptoethanol, pH 7.8 by ultrafiltration. The purity of recovered protein was 89%.
General Procedure for PRMT8 Enzyme Assays on Peptide Substrates.
The assays were all performed in a buffer consisting of 20 mM Bicine (pH=7.6), 1 mM TCEP, 0.005% BSG, and 0.002% Tween 20, prepared on the day of use. Compounds in 100% DMSO (1 ul) were spotted into a polypropylene 384-well V-bottom plates (Greiner) using a Platemate Plus outfitted with a 384-channel head (Thermo Scientific). DMSO (1 ul) was added to Columns 11, 12, 23, 24, rows A-H for the maximum signal control and 1 ul of SAH, a known product and inhibitor of PRMT8, was added to columns 11, 12, 23, 24, rows I-P for the minimum signal control. A cocktail (40 ul) containing the PRMT8 enzyme was added by Multidrop Combi (Thermo-Fisher). The compounds were allowed to incubate with PRMT8 for 30 min at room temperature, then a cocktail (10 ul) containing ^3H-SAM and peptide was added to initiate the reaction (final volume=51 ul). The final concentrations of the components were as follows: PRMT8 was 1.5 nM, ^3H-SAM was 50 nM, non-radiolabeled SAM was 550 nM, peptide was 150 nM, SAH in the minimum signal control wells was 1 mM, and the DMSO concentration was 2%. The assays were stopped by the addition of non-radiolabeled SAM (10 ul) to a final concentration of 400 uM, which dilutes the ^3H-SAM to a level where its incorporation into the peptide substrate is no longer detectable. 50 ul of the reaction in the 384-well polypropylene plate was then transferred to a 384-well Flashplate and the biotinylated peptides were allowed to bind to the streptavidin surface for at least 1 hour before being washed once with 0.1% Tween20 in a Biotek ELx405 plate washer. The plates were then read in a PerkinElmer TopCount plate reader to measure the quantity of ^3H-labeled peptide bound to the Flashplate surface, measured as disintegrations per minute (dpm) or alternatively, referred to as counts per minute (cpm).
as §1, §2

[1] abbreviates: Table 2, biochemical evaluation, read-out: PRMT6 IC50 (class).
Setting [2] is: Table 2a, numerical, single experiment or average of multiple experiments, read-out: PRMT6 IC50.
Setting [3] is: Table 2, biochemical evaluation, read-out: PRMT8 IC50 (class).
Where [4] appears, read: Table 2a, numerical, single experiment or average of multiple experiments, read-out: PRMT8 IC50.

Consider `CN(CCN)Cc1[nH]cnc1-c1ccc(C#N)cc1` [Compound 10, 4-(5-(((2-aminoethyl)(methyl)amino)methyl)-1H-imidazol-4-yl)benzonitrile], for which the IC50 (usually the concentration needed to halve the response being measured) is 0.101 to 1 µM at PRMT6 (setting [1]), 0.168 µM at PRMT6 (setting [2]), 3.01 to 10 µM at PRMT8 (setting [3]) and 3.13 µM on PRMT8 (setting [4]).
On the same counts, the results for `CN(CCN)Cc1cncn1-c1ccc(C#N)cc1` [Compound 6, 4-(5-(((2-aminoethyl)(methyl)amino)methyl)-1H-imidazol-1-yl)benzonitrile] are 1.01 to 3 µM, 1.09 µM, 3.01 to 10 µM and 8.21 µM.
For `CN(CCN)Cc1nsnc1-c1ccc(C#N)cc1` [Compound 7, 4-(4-(((2-aminoethyl)(methyl)amino)methyl)-1,2,5-thiadiazol-3-yl)benzonitrile], in that order: 0.101 to 1 µM, 0.112 µM, 0.101 to 1 µM and 0.445 µM.
On the same counts, the results for `CN(CCN)Cc1oncc1-c1ccc(F)cc1` [Compound 11, N^1-((4-(4-fluorophenyl)isoxazol-5-yl)methyl)-N^1-methylethane-1,2-diamine] are 1.01 to 3 µM, 2.95 µM, above 10 µM and above 10 µM.
For `CN(CCN)Cc1ccnn1-c1ccc(Oc2ccccc2)cc1` [Compound 9], the IC50 at PRMT6 (setting [1]) is below 0.1 µM; at PRMT6 (setting [2]), 0.00672 µM; at PRMT8 (setting [3]), below 0.1 µM; on PRMT8 (setting [4]), 0.0718 µM.
With `CN(CCN)Cc1cnnn1-c1ccc(C#N)cc1` [Compound 5, 4-(5-(((2-aminoethyl)(methyl)amino)methyl)-1H-1,2,3-triazol-1-yl)benzonitrile], the IC50 on PRMT6 (setting [1]) and on PRMT6 (setting [2]) was above 10 µM in each case.
Regarding `CN(CCN)Cc1n[nH]nc1-c1ccc(C#N)cc1` [Compound 3, 4-(5-(((2-aminoethyl)(methyl)amino)methyl)-2H-1,2,3-triazol-4-yl)benzonitrile], the IC50 at PRMT6 (setting [1]) is below 0.1 µM; at PRMT6 (setting [2]) it was 0.0703 µM; on PRMT8 (setting [3]) it was 1.01 to 3 µM; at PRMT8 (setting [4]), 1.55 µM.
For `CN(CCN)Cc1ocnc1-c1ccc(C#N)cc1` [Compound 4, 4-(5-(((2-aminoethyl)(methyl)amino)methyl)oxazol-4-yl)benzonitrile], in that order: 0.101 to 1 µM, 0.168 µM, 0.101 to 1 µM and 0.509 µM.
For `CN(CCN)Cc1ccnn1-c1ccc(C#N)cc1` [Compound 2, 4-(5-(((2-aminoethyl)(methyl)amino)methyl)-1H-pyrazol-1-yl)benzonitrile], in that order: below 0.1 µM, 0.0987 µM, 1.01 to 3 µM and 1.3 µM.
On the same counts, the results for `CC(C)Oc1ccc(-n2nccc2CN(C)CCN)cc1` [Compound 8, N^1-((1-(4-isopropoxyphenyl)-1H-pyrazol-5-yl)methyl)-N^1-methylethane-1,2-diamine] are below 0.1 µM, 0.0464 µM, below 0.1 µM and 0.0897 µM.
On to `CN(CCN)Cc1ncoc1-c1ccc(C#N)cc1` [Compound 1, 4-(4-(((2-aminoethyl)(methyl)amino)methyl)oxazol-5-yl)benzonitrile], for which the IC50 on PRMT6 (setting [1]) was 0.101 to 1 µM; on PRMT6 (setting [2]), 0.35 µM; on PRMT8 (setting [3]), 3.01 to 10 µM; on PRMT8 (setting [4]) it was 1.87 µM.
